Test results from ChEMBL document CHEMBL3132769, “Fragment growing to retain or alter the selectivity of anchored kinase hinge-binding fragments” (Medchemcomm, 2014).

Legend:
[1] = target: Serine/threonine-protein kinase Chk2 (Homo sapiens) (UniProt O96017); test: Inhibition of human full length CHK2 expressed in baculovirus assessed as substrate phosphorylation using fluorescence-labelled peptides as substrate at 8 uM after 90 mins by microfluidic peptide phosphorylation assay
[2] = target: T1, cGMP-dependent protein kinase 1 (Homo sapiens) (UniProt Q13976); test: Inhibition of human full length PKG-1a expressed in baculovirus assessed as substrate phosphorylation using fluorescence-labelled peptides as substrate at 8 uM after 90 mins by microfluidic peptide phosphorylation assay
T1 sequence (whole entry): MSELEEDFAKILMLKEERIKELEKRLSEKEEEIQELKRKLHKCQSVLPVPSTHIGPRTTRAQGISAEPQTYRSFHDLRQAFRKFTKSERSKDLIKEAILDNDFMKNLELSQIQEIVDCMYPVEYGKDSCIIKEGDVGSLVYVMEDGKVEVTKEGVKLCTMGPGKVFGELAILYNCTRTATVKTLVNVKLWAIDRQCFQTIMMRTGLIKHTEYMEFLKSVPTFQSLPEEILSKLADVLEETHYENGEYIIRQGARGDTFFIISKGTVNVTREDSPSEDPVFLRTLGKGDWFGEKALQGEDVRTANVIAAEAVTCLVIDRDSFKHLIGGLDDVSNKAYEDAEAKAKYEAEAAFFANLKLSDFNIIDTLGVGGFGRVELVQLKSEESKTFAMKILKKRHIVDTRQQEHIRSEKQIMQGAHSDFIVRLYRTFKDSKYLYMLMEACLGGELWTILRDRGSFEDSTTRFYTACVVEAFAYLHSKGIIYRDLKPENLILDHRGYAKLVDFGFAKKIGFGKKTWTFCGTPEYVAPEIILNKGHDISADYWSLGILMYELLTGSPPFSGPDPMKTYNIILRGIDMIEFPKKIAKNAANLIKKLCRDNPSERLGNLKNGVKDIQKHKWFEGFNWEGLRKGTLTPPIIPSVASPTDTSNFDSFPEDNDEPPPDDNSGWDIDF

[3] = target: Tyrosine-protein kinase Lck (Homo sapiens) (UniProt P06239); test: Inhibition of human full length LCK expressed in baculovirus assessed as substrate phosphorylation using fluorescence-labelled peptides as substrate at 0.06 uM after 90 mins by microfluidic peptide phosphorylation assay
Sequence of Tyrosine-protein kinase Lck (Homo sapiens) (P06239 2-509 limits assumed): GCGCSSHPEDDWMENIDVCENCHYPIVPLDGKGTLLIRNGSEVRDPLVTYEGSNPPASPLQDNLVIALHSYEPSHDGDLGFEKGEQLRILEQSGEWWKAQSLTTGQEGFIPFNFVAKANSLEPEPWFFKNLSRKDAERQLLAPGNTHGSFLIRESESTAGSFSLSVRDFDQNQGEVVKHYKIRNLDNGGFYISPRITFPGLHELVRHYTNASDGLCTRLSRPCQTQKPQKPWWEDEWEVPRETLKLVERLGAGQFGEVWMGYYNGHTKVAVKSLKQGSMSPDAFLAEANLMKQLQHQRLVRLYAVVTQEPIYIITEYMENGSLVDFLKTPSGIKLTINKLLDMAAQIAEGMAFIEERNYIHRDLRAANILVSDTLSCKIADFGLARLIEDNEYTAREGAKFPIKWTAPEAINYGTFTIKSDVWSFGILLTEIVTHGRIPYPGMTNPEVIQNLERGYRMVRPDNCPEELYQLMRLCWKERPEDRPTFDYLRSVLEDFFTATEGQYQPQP

[4] = target: Mitogen-activated protein kinase kinase kinase kinase 4 (Homo sapiens) (UniProt O95819); test: Inhibition of human HGK catalytic domain expressed in baculovirus assessed as substrate phosphorylation using fluorescence-labelled peptides as substrate at 0.2 uM after 90 mins by microfluidic peptide phosphorylation assay
Sequence of Mitogen-activated protein kinase kinase kinase kinase 4 (Homo sapiens) (O95819 2-1239 limits assumed): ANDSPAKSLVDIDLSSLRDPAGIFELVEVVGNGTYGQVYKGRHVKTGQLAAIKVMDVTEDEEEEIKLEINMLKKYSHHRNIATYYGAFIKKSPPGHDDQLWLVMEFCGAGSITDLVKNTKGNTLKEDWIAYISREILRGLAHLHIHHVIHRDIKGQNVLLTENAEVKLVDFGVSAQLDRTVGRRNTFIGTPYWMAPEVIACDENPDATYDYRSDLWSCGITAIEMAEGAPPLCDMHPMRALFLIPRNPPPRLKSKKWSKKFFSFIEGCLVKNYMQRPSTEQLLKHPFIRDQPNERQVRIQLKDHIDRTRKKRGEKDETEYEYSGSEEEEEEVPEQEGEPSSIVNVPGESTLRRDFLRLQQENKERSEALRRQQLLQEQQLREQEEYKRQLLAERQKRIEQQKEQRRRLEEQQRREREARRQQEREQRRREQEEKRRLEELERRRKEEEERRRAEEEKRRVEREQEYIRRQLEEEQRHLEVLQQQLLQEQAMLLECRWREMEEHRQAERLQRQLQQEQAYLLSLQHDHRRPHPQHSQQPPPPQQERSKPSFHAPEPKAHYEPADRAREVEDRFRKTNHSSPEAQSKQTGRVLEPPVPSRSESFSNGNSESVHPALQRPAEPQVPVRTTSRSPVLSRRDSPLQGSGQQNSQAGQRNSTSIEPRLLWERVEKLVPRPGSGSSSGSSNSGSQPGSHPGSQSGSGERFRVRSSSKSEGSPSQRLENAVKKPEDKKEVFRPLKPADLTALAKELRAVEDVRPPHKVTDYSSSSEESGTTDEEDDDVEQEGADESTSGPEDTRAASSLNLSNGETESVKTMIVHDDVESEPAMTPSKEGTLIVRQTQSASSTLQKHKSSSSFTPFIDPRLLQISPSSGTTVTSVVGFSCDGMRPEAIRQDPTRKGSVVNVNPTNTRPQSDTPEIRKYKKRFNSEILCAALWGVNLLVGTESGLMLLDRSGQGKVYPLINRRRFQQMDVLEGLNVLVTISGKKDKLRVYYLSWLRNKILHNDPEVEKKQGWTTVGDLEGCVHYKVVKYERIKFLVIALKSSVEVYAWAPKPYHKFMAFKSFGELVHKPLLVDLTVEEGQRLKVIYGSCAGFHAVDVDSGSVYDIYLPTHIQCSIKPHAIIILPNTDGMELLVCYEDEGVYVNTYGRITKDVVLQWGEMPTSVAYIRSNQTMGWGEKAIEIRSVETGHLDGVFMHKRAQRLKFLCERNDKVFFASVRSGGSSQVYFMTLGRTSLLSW

[5] = target: Tyrosine-protein kinase Lyn (Homo sapiens) (UniProt P07948); test: Inhibition of human full length LYN expressed in baculovirus assessed as substrate phosphorylation using fluorescence-labelled peptides as substrate at 2 uM after 90 mins by microfluidic peptide phosphorylation assay
Sequence of Tyrosine-protein kinase Lyn (Homo sapiens) (P07948 2-512 limits assumed): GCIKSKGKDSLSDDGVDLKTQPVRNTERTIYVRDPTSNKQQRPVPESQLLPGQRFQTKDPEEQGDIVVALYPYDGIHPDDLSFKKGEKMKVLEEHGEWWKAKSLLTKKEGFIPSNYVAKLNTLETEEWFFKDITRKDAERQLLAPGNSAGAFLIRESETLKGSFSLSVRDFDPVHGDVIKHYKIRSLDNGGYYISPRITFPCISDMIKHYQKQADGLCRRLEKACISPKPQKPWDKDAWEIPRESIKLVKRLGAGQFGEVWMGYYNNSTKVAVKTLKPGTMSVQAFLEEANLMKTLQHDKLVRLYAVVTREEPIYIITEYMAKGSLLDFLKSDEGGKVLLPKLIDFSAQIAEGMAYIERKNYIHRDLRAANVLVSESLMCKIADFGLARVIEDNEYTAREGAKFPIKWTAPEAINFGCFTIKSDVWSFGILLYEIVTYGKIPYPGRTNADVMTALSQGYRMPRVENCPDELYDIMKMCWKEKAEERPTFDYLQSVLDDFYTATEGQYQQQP

[6] = target: Dual specificity tyrosine-phosphorylation-regulated kinase 1A (Rattus norvegicus) (UniProt Q63470); test: Inhibition of rat full length DYRK1a expressed in Escherichia coli cell assessed as substrate phosphorylation using fluorescence-labelled peptides as substrate at 2 uM after 90 mins by microfluidic peptide phosphorylation assay
[7] = target: Tyrosine-protein kinase Lyn (Homo sapiens) (UniProt P07948); settings: 0.1 uM
Description: Inhibition of human full length LYN expressed in baculovirus assessed as substrate phosphorylation using fluorescence-labelled peptides as substrate at 0.1 uM after 90 mins by microfluidic peptide phosphorylation assay

[8] = target: T2, Aurora kinase A (Homo sapiens) (UniProt O14965); test: Inhibition of human full length AurA expressed in baculovirus assessed as substrate phosphorylation using fluorescence-labelled peptides as substrate at 70 uM after 90 mins by microfluidic peptide phosphorylation assay
T2 sequence (whole entry): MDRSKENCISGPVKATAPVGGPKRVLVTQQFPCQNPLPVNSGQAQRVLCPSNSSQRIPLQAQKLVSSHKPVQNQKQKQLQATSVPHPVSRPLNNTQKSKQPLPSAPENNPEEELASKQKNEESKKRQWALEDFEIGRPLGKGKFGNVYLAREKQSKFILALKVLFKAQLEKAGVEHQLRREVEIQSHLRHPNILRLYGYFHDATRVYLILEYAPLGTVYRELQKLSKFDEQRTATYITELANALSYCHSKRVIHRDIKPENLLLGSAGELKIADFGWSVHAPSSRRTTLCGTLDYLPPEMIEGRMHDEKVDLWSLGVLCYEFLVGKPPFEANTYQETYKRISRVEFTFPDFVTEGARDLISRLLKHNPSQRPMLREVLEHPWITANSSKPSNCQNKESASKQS

[9] = target: Fibroblast growth factor receptor 2 (Homo sapiens) (UniProt P21802); test: Inhibition of human FGFR2 catalytic domain expressed in baculovirus assessed as substrate phosphorylation using fluorescence-labelled peptides as substrate at 70 uM after 90 mins by microfluidic peptide phosphorylation assay
Sequence of Fibroblast growth factor receptor 2 (Homo sapiens) (P21802 22-821 limits assumed): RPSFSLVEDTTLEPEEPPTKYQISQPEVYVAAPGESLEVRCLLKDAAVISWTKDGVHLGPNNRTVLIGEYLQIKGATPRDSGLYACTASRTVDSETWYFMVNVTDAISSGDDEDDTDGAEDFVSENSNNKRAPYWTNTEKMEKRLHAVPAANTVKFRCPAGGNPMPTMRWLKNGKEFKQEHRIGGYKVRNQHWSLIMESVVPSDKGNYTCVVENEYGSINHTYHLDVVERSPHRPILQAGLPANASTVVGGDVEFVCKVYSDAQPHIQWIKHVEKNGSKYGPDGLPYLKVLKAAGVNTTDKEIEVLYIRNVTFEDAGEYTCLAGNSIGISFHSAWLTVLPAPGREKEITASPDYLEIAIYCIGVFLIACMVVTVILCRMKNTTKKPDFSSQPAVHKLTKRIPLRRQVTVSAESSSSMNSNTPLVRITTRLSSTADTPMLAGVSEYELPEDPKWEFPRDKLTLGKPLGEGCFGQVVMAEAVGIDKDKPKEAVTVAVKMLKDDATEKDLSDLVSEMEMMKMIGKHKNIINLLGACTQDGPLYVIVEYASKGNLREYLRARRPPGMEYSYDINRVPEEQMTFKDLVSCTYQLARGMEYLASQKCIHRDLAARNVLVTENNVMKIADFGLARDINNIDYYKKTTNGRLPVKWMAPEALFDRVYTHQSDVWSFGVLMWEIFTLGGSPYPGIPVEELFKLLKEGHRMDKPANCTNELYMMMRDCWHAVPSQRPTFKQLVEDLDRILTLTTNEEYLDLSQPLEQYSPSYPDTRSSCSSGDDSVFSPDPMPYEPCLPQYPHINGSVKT

[10] = target: Calcium/calmodulin-dependent protein kinase type II subunit delta (Homo sapiens) (UniProt Q13557); test: Inhibition of human full length CAMK2D expressed in baculovirus assessed as substrate phosphorylation using fluorescence-labelled peptides as substrate at 70 uM after 90 mins by microfluidic peptide phosphorylation assay
Sequence of Calcium/calmodulin-dependent protein kinase type II subunit delta (Homo sapiens) (Q13557 whole entry): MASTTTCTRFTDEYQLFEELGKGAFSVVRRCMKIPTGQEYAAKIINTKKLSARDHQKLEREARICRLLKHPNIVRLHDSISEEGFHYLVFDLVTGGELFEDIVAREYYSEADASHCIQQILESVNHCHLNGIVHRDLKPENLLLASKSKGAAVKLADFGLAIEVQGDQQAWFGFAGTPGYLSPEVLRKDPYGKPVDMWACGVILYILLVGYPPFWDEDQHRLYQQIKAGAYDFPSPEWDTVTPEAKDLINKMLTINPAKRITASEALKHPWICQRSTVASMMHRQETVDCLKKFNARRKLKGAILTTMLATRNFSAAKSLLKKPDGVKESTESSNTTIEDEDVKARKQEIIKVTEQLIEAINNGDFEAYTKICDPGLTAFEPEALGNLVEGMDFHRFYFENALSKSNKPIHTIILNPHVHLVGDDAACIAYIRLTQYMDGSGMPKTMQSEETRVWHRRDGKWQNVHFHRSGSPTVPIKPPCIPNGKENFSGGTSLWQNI

[11] = target: T3, Serine/threonine-protein kinase D1 (Homo sapiens) (UniProt Q15139); test: Inhibition of human full length PKD1 expressed in baculovirus assessed as substrate phosphorylation using fluorescence-labelled peptides as substrate at 420 uM after 90 mins by microfluidic peptide phosphorylation assay
T3 sequence (whole entry): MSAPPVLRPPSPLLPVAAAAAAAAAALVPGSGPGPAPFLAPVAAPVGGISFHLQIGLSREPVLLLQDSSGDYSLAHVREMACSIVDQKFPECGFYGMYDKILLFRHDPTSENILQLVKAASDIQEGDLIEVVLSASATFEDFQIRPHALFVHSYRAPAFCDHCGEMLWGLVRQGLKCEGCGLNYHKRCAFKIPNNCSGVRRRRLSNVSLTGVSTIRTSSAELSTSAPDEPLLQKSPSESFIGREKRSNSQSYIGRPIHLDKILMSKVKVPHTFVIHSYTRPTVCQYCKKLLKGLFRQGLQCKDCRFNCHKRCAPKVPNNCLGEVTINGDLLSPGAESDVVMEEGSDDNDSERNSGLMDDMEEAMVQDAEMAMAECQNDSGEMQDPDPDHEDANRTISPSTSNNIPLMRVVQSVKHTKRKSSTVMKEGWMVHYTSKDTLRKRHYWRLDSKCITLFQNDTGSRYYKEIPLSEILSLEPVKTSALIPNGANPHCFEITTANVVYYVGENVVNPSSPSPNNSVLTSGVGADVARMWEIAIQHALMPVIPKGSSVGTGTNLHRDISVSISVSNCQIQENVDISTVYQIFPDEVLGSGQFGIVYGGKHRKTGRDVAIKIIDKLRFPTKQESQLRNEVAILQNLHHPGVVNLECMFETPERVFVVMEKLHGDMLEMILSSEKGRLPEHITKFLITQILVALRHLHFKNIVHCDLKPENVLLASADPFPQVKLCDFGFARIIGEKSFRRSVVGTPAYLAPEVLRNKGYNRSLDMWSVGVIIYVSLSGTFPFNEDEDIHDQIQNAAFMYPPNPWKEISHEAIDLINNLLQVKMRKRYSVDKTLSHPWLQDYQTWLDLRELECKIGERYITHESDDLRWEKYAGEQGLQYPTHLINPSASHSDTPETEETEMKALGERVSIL

Sequence of Serine/threonine-protein kinase Chk2 (Homo sapiens) (O96017 whole entry): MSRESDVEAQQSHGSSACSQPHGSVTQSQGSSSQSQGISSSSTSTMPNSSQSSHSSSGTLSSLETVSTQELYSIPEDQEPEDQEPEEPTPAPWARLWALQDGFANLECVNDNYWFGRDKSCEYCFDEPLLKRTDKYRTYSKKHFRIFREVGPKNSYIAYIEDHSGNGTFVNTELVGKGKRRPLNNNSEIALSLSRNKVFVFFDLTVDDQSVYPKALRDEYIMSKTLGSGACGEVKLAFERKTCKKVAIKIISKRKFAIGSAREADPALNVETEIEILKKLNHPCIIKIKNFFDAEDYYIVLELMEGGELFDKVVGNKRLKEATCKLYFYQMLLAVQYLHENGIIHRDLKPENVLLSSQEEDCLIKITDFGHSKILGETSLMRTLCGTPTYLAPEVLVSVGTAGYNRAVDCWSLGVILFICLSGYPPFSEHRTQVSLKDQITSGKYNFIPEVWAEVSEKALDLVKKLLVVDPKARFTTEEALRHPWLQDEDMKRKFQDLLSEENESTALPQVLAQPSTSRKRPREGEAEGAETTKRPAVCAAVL

SMILES: NCC1CCN(c2ncnc3[nH]ccc23)CC1
- inhibition [1]: 0%
- inhibition [2]: 14%

SMILES: NC1(Cc2ccc(Cl)cc2)CCN(c2ncnc3[nH]ccc23)CC1
- inhibition [3]: 0%

SMILES: Clc1ccc(C2(c3ccc(-c4ncnc5[nH]cnc45)cc3)CCNCC2)cc1
- inhibition [4]: 3%

SMILES: NC1CCN(c2ncnc3[nH]ccc23)CC1
- inhibition [5]: 0.5%
- inhibition [6]: 0.5%

SMILES: C[C@H](CN(C)C)Oc1nc(Nc2cc3cccc(Cl)c3cn2)cnc1C#N
- inhibition [7]: 0%

SMILES: CNCc1ccc(-c2ncnc3[nH]cnc23)cc1
- inhibition [8]: 68%
- inhibition [9]: 27%
- inhibition [10]: 17.5%

SMILES: c1nc(N2CCOCC2)c2nc[nH]c2n1
- inhibition [11]: 70%
